Data set [1] deals with SW-620. Kind of data set: In vitro cytotoxicity screening (sulphodamine B dye), SW-620. Type of data set: cell-based. Particulars: Homo sapiens. Here is the method:
Cells at sub confluent stage were harvested from the flask by treatment with trypsin (0.5% in PBS containing 0.02% EDTA) for determination of cytotoxicity. […] The cell suspensions of required cell density were prepared in complete growth medium with gentamycin (50 μg/ml) for determination of cytotoxicity. The cells (100 μl/well) were inoculated in 96 well tissue culture plates. The cells were allowed to grow for 24 hrs temperature of 37° C. and in a humidified atmosphere of 5% CO2 in air. Stock solution of (20 mM) of test material was prepared in DMSO. The stock solution was serially diluted with complete growth medium containing 50 μg/ml of gentamycin to obtain […] working test solutions of 1., 2, 5, 10, 50 and 100 μM.
The media were supplemented with FCS (10%), penicillin (100 Units/ml), streptomycin (100 μg/ml) and glutamine (2 mM) and cells were grown in CO2 incubator (Hera cell, Heraeus, USA) at 37° C. with 90% humidity and 5% CO2.

For data set [2], the system named is Ehrlich Ascites Carcinoma (EAC). Kind of data set: Anti tumor activity on Ehrlich Ascites Carcinoma (EAC) bearing mice. Particulars: for % Tumor growth inhibition / Ascitic fluid volume (ml) Mean ± SE / Tumor cells in ascitic fluid (×10^7) Mean ± SE: nine days, day 12. Type of data set: in vivo. From the text: (§1) Non-inbred swiss albino mice from an in-house colony were used in the present study. The breeding and experimental animals were housed in standard size polycarbonate cages providing internationally recommended space for each animal. Animals were fed balanced mice feed supplied by MIs Ashirwad Industries, Chandigarh (India) and autoclaved water was available ad libitum. Animals were cared as per the guide for the care and use of laboratory animals (1996), ILAR, Washington D.C. They were housed in controlled conditions of temperature (23±2° C.), humidity (50-60%) and 12:12 hrs of light: dark cycle. The study and the number of animals used were approved by the institutional animal ethics committee, IIIM, Jammu, India. The study was conducted as per the protocols of National Cancer Institute (NCl), USA (Geran et al., 1972).
Ehrlich Ascites Carcinoma (EAC) was propagated by transplanting 1×10^7 cells from an animal bearing 8-10 days old Ehrlich Ascites Carcinoma, into the peritoneal cavity of non-inbreed swiss mice. For testing, mice of the same sex weighing 20 ±3 g bearing ascites tumor were selected. 1×10^7 cells obtained from an animal bearing 8-10 days old ascites tumor were injected into peritoneal cavity of all animals used for testing (0 Day). On next day animals were randomized and divided into test groups (7 animals in each test group) and one tumor control group (10 animals). Test groups were treated with different doses of Parthenin (10 mg/kg, 25 mg/kg and 50 mg/kg) and its derivative Compound-17 (10 mg/kg, 25 mg/kg and 50 mg/kg, 100 mg/kg and 200 mg/kg) suspension in 1% gum acacia in their respective group intraperitonealy for nine consecutive days. Another test group was administered 5 FU @ 20 mg/kg i.p and served as positive control. The tumor control group was similarly administered normal saline (0.2 ml i.p). The percent tumor growth inhibition were measured on day 12 with respect to volume of ascitic fluid and the number of tumor cells in the ascitic fluid of peritoneal cavity (Geran et al., 1972; Singh et al., 2007).
The percent tumor growth inhibition was calculated as follow. % growth inhibition=100×(Average no. of cells in control group−Average no. of cells in test group)/Average no. of cells in control group Results: […]

The subject of data set [3] is Ehrlich Ascites Tumor (EAT). Kind of data set: Anti tumor activity on solid Ehrlich Ascites Tumor (EAT) bearing mice. Type of data set: in vivo. The settings on record: for % Tumor growth inhibition / Tumor Weight (mg) Mean ± SE: nine days, day 13.
Description: as §1
Parthenin and its derivative Compound-17 were evaluated against solid Ehrlich Ascites Tumor (EAT) models at different doses. A standard procedure for experiment was as followed:
Animals of the same sex weighing 20±3 g were injected 1×10^7 cells collected from the peritoneal cavity of non-inbred swiss mice, bearing 8-10 days old tumor cells, into the right thigh, intramuscularly (on Day 1). On next day animals were randomized and divided into test groups (7 animals in each test group) and one tumor control group (10 animals). Test groups were treated with different doses of Parthenin (10 mg/kg, 25 mg/kg and 50 mg/kg) and its derivative Compound-17 (10 mg/kg, 25 mg/kg and 50 mg/kg, 100 mg/kg and 200 mg/kg) suspension in 1% gum acacia in, their respective group intraperitonealy for nine consecutive days. Another test group was administered 5-FU @ 22 mg/kg i.p and served as positive control. The tumor contra group was similarly administered normal saline (0.2 ml i.p). The percent tumor growth-inhibition was measured on day 13 with respect to their tumor weight (Geran et al., 1972): Shortest and longest diameters of the tumor mass were measured with the help of vernier caliper and tumor weight (mg) was calculated by using following formula Tumor weight (mg)=Length (mm)×(Width (mm)^2/2 The average tumor weight for each group was calculated and the percent tumor growth inhibition in treated groups was calculated as follows: % Tumor Growth Inhibition=100×(Average tumor weight of control group−Average tumor weight of test group)/Average tumor weight of control group Anti Tumor Activity of Parthenin and its Derivative Compound-17 on Ehrlich Ascites Carcinoma (EAC)

Consider `C[C@H]1CC[C@@H]2[C@@H](OC(=O)C23CC(c2c4ccccc4cc4ccccc24)=NO3)[C@]2(C)C(=O)C=C[C@@]12O` (stereo partly drawn) [Compound -17], for which the IC50 in data set [1] (SW-620 colon cancer cell line) stood at 4.3 µM. The inhibition at 5 µM in data set [1] (at 5 μM, SW-620, read-out: cell growth inhibition) stood at 72%. Also, the “% Tumor growth inhibition” value in data set [2] (10 mg/kg i.p.) is listed as 7.74%; in data set [2] (25 mg/kg i.p.), 19.16%; in data set [2] (50 mg/kg i.p.), 27.23%; in data set [2] (100 mg/kg i.p.) it was 60.50%; in data set [3] (10 mg/kg i.p.), 9.44%; in data set [3] (25 mg/kg i.p.) it was 15.38%. Further, the “% Tumor growth inhibition” value came to 22.03% in data set [3] (50 mg/kg i.p.) and 35.11% in data set [3] (100 mg/kg i.p.). The “Ascitic fluid volume (ml) Mean ± SE” value in data set [2] (10 mg/kg i.p.) was 4.07 ± 0.35 mL; in data set [2] (25 mg/kg i.p.), 3.62 ± 0.32 mL; in data set [2] (50 mg/kg i.p.) it was 2.85 ± 0.37 mL; in data set [2] (100 mg/kg i.p.) it was 2.07 ± 0.33 mL. Also, the “Tumor cells in ascitic fluid (×10^7) Mean ± SE” value was 78.42 ± 2.90 ×10^7 in data set [2] (10 mg/kg i.p.), 68.71 ± 3.16 ×10^7 in data set [2] (25 mg/kg i.p.), 61.85 ± 4.20 ×10^7 in data set [2] (50 mg/kg i.p.) and 33.57 ± 2.60 ×10^7 in data set [2] (100 mg/kg i.p.). Moreover, the “mortality of test animals” value was “All animals died by 3rd day” in data set [2] (200 mg/kg i.p., EAC bearing mice) and “All animals died by 3rd day” in data set [3] (200 mg/kg i.p., EAT bearing mice). Moreover, the “Tumor Weight (mg) Mean ± SE” value turned out to be 1547.14 ± 36.63 mg in data set [3] (10 mg/kg i.p.), 1445.71 ± 41.52 mg in data set [3] (25 mg/kg i.p.), 1332.14 ± 32.59 mg in data set [3] (50 mg/kg i.p.) and 1108.57 ± 38.02 mg in data set [3] (100 mg/kg i.p.).
